Data on eight molecules can be found in patent US6818618B1, “Inhibition of smooth muscle cell migration by Tenascin-C peptides” (Cedars-Sinai Medical Center, priority 1998, dated 2004).

“Also recorded” adds a separate entry of the source.

In one test the test system is newborn aortic SMCs. The test is described as follows: Adhesion assay: newborn SMCs on wells coated with the substance. Type of test: cell-based, rat. The following applies: for adhesion activity relative to the Fbg-L domain: peptide coated at 10 μg/ml on tissue culture dishes; for level of adhesion of newborn SMCs to coated substrate: wells coated with 10 μg/ml substrate. The procedure:
(§1) Adult Aortic SMCs were cultured as described (12). Newborn (9-day old) aortic SMCs were obtained from Dr. Stephen, M. Schwartz, of University of Washington, and subsequently cultured (13). Briefly, rat aortic SMCs were isolated by enzymatic digestion of rat aorta (Sprague-Dawley, 2 months old, 270 g). Cells were grown in DMEM/F12 media (Gibco) supplemented with 10% fetal bovine serum (Gibco). After reaching confluence, cells (between 3rd and 6th passages) were used for adhesion studies.
(§2) Microtiter plates (Falcon, Becton Dickinson, Oxnard, Calif.) were coated with the respective substrate for one (1) hour at 37° C. Nonspecific sites were blocked with 1 mg/ml BSA in PBS. […] After incubation for 60 min. at 37° C., nonadherent cells were removed with gentle washing with PBS. The number of attached cells were quantified by staining cells with 0.2% crystal violet in 20% methanol, lysing with 1% SDS, and measuring the absorbance at 550 nm (14).
To determine the concentration for the adhesion assays, microtiter plates were coated with increasing concentrations (1-100 μg/ml) of substrates, and the number of adherent cells was quantified. Adhesion of cells to Tenascin-C reached saturation levels at coating concentrations of 10 μg/ml (not shown). Therefore, all the subsequent adhesion assays were performed by coating the wells with a 10 μg/ml substrate.
The active domain of Tenascin-C was mapped using recombinant proteins corresponding to full-length Fbg-L and FN-L domains as well as FN-L subdomains 6-8, A-D, A1A2, and D. The ability of these domains, or subdomains, to interact with newborn SMCs was determined by an adhesion assay, and the results are shown in FIG. 5. In FIG. 5, a microtiter plate was coated with BSA, fibronectin (FN), intact Tenascin-C (TN), and the recombinant proteins corresponding to: the Fbg-L domain (Fbg-L), the entire FN-L repeats (AII), the constitutively spliced repeats 6-8, the alternatively spliced A-D, A1A2, and D domains. An adhesion assay was performed with newborn SMCs. Values shown are from a representative experiment in which triplicates are plotted±SEM.
The ability of the synthetic peptides to directly interact with newborn cells was determined by an adhesion assay. […] In FIG. 8, 96-well plates were coated with solutions containing BSA (C), fibronectin (FN), Tenascin-C (TN), the fibrinogen-like domain (Fbg-L), and synthetic peptides at a concentration of 10 μg/ml in PBS. An adhesion assay was performed with newborn rat SMCs. Tissue culture plates were coated with increasing concentrations of peptides from 0.1 to 10 μg/ml, and the adhesion of newborn cells was measured. Values shown are from a representative experiment in which triplicates are plotted as mean±SEM.

For test [1], the system named is adhesion of newborn SMCs to Tenascin-C. The test is described as follows: Adhesion of newborn SMCs to Tenascin-C-coated wells in the presence of soluble agents. The settings on record: for inhibition of attachment of SMCs to Tenascin-C: 0.1 mg/ml GRGDS peptide, higher concentrations did not significantly alter adhesion; for effect on adhesion of SMCs to Tenascin-C (summary statement): concentration not given. Type of test: cell-based, rat. The procedure:
as §2
(§3) It has been shown that the interaction of some cells with Tenascin-C is mediated by the RGD motif (20, 23). Therefore, an adhesion assay was used to determine the role of RGD in the interaction between Tenascin-C and SMCs. The specificity of the adhesion was determined by coating the wells with the recombinant 10th-type III repeat of fibronectin (24). In FIG. 2, 96-well plates were coated with either BSA (BSA), Tenascin-C (TN), or the recombinant 10th-type III repeat of fibronectin (10III) as described for FIG. 1. Newborn SMCs were detached, washed once in adhesion buffer and added to various concentrations of the peptide GRGDS. Cells and peptides were then preincubated for 30 min. prior to plating. The values shown are the mean±SEM of triplicate samples. Nonspecific binding to control wells coated with BSA was not subtracted from each value.
(§4) In FIG. 3, 96-well plates were coated with solutions containing intact fibronectin (FN), the recombinant 10th-type III repeat of fibronectin (FN10III), or Tenascin-C (TN). […] The number of attached cells was quantified by a colorimeter. Values shown are from a representative experiment in which triplicates are plotted as mean±SEM.
(§5) In FIG. 4, 96-well plates were coated with either Tenascin-C (TN) or the recombinant tenth type III repeat of fibronectin (10III) as described for FIG. 1. […] Values shown are from the mean±SD of triplicate samples.
To distinguish between these possibilities, the recombinant FN-L proteins were labeled with ^125I, and their ability to coat the tissue culture dishes was compared to the Fbg-L domain. […] To determine whether the binding to tissue culture dishes had influenced the activity of the recombinant proteins, the ability of soluble Fbg-L or FN-L domains and subdomains to inhibit the interaction between intact Tenascin-C and SMCs was examined. […] In FIG. 6, 96-well plates were coated with fibronectin (FN), the recombinant tenth type III repeat of fibronectin (10III), or an intact Tenascin-C molecule (TN). Newborn SMCs were incubated for 15 min. at 37° C. with a solution of 200 μg/ml of a recombinant Fbg-L domain, the entire FN-L domain (FN-L), or the alternatively spliced A-D repeats (AD). […] Adhesion was measured as described above. Values shown are from representative experiments in which triplicates are plotted±SEM.
(§6) In FIG. 8(B), 96-well plates were coated with BSA, intact Tenascin-C (TN) or the fibrinogen-like domain (Fbg-L), and adhesion of newborn cells was measured in the presence of 1 μM synthetic peptides.

Test [2] deals with adhesion of newborn SMCs to the recombinant 10th-type III repeat of fibronectin. The test is described as follows: Adhesion of newborn SMCs to the recombinant 10th-type III repeat of fibronectin in the presence of soluble agents. Type of test: cell-based, rat. Here is the method: as §2, §3, §4, §5
To distinguish between these possibilities, the recombinant FN-L proteins were labeled with ^125I, and their ability to coat the tissue culture dishes was compared to the Fbg-L domain. […] Adhesion was measured as described above. […]

A further test concerns adult rat aortic SMCs. The test is described as follows: Adhesion assay: adult aortic SMCs on wells coated with the substance. Type of test: cell-based. The settings on record: for adhesion of adult SMCs to coated substrate: 60 min, crystal violet absorbance. The procedure: as §1, §2
Interaction between aortic SMCs and Tenascin-C was assessed by an adhesion assay. […] In FIG. 1, 96-well plates were coated with solutions containing intact fibronectin (FN), vitronectin (VN) or Tenascin-C (TN) and incubated with either adult or newborn aortic SMCs. Adhesion is measured by determining absorbance of attached cells after staining with crystal violet. Values shown are from a representative experiment in which triplicates are plotted as mean±SEM.

The subject of test [3] is newborn rat SMCs migration on Tenascin-C substrate. The test is described as follows: Migration assay (modified Boyden's chamber) on Tenascin-C substrate. In kind it is cell-based. The procedure:
(§7) Cell migration was measured by a modification of the Boyden's chamber method using microchemotaxis chambers (Neuro Probe Inc.). Polycarbonate filters were coated with 10 μg/ml of substrates overnight at 4° C. Newborn rat SMCs were suspended at a concentration of 10^5 cells/ml in serum-free DMEM supplemented with 1 mg/ml BSA. A volume of 50 μl of cell suspension was placed in the upper chamber, and 30 μl of 10% bovine calf serum in DMEM was placed in the lower chamber. In some experiments, cells were suspended in DMEM supplemented with 0.1 μM of the fibrinogen-like domain (Fbg-L) or 1 μM of peptide VIII before addition to the upper chamber. The chamber was incubated at 37° C. under 5% CO2 in air for 4 hours. The filter was removed, and the cells on the upper side of the filter were scraped off. The SMCs that had migrated to the lower side of the filter were fixed in methanol, stained with Diff-Quick staining solution (Baxter) and counted under a microscope.
(§8) To map the active domain of Tenascin-C that is involved in cell migration, the ability of the recombinant domains to block SMCs migration on a Tenascin-C substrate was determined. […] In FIG. 9, cell migration was measured by a modification of Boyden's chamber. […] Migrating cells were fixed and counted under a microscope. Nine high power fields (HPF) were counted for each triplicate. […]

Test [4] has as its system adhesion of SMCs to peptide VIII. The test is described as follows: Adhesion of SMCs to peptide VIII-coated wells in the presence of soluble agents. Type of test: cell-based, rat. The settings on record: EDTA or cations; not shown. The procedure: as §2
In test [5] the test system is adhesion of newborn SMCs to the Fbg-L domain. The test is described as follows: Adhesion of newborn SMCs to Fbg-L domain-coated wells in the presence of soluble agents. In kind it is cell-based, rat. The following applies: EDTA or cations; not shown. The procedure: as §2, §6
Test [6] relates to newborn rat SMCs migration on collagen substrate. The test is described as follows: Migration assay (modified Boyden's chamber) on collagen substrate. Type of test: cell-based. The following applies: Fbg-L or 1 μM peptide VIII in upper chamber. Here is the method: as §7, §8
The mark [7] stands for this setting: increasing cation concentration.
[8] abbreviates: various concentrations of cation.

With “IX: 30 amino acid synthetic peptide from the C-terminal part of the Fbg-L domain of Tenascin-C, Seq. Id. No. 9 (FHWKGHEHSIQFAEMKLRPSNFRNLEGRRKRA)”, the “adhesion activity relative to the Fbg-L domain” value in the test on newborn aortic SMCs was found to be 30%.
In the case of GRGDS, the entries for the “inhibition of attachment of SMCs to Tenascin-C” value in test [1] and in test [1] (listed as RGD peptide) were “approximately 30%” and 30%, respectively. The “inhibition of attachment of newborn SMCs to the recombinant fibronectin fragment” value in test [2] (0.1 mg/ml peptide, 30 min preincubation) is recorded as “complete inhibition”.
For “Tenascin-C: intact Tenascin-C purified from conditioned media of BHK cells overexpressing Tenascin-C”, the “coating concentration at which cell adhesion reached saturation levels” value in the test on newborn aortic SMCs (increasing coating concentrations) worked out at 10 µg/mL. In addition, the “adhesion of newborn SMCs to Tenascin-C relative to adult cells” value in the test on newborn aortic SMCs (newborn vs adult SMCs, coated wells) is given as 3-4 times higher. Moreover, in the test on newborn aortic SMCs, the “level of adhesion of newborn SMCs to coated substrate” value was “comparable to the attachment levels observed with fibronectin; also recorded: high compared to the fibronectin”. Also, the “adhesion of adult SMCs to Tenascin-C relative to attachment to the adhesive proteins (fibronectin, vitronectin)” value with adult rat aortic SMCs (coated wells) is reported as 3-4 times lower. Moreover, the “SMCs chemotaxis on coated substrate compared to BSA” value in test [3] (filters coated with 10 μg/ml substrate) was “stimulated”.
With GRFDS, the “effect of inactive control peptide on adhesion (compared with GRGDS)” value in test [1] (not shown) is “no effect”.
As to `[Mg+2]` [Mg^2+], the “effect on adhesion to peptide VIII” value in test [4] is “promoted”. Also, the “effect on adhesion of SMCs to Tenascin-C (summary statement)” value in test [1] is on record as “promoted”. Besides, the “increase potential for the interaction between newborn SMCs and Tenascin-C” value in test [1] (in the presence of Mg^2+) was “three-fold”. The “cation concentration giving maximal cell adhesion to Tenascin-C” value in test [1] (setting [7]) is 5 to 10 mM. The “effect of cation on newborn SMCs adhesion to Tenascin-C” value in test [1] (setting [8]) is on record as “increased”. The “cation concentration giving maximal cell adhesion to the recombinant fibronectin fragment” value in test [2] (setting [7]) lay within 5 to 10 mM. Also, in test [2] (setting [8]), the “effect of cation on newborn SMCs adhesion to the recombinant fibronectin fragment” value is on record as “increased”. In addition, the “effect on adhesion of SMCs to the Fbg-L domain” value in test [5] is recorded as “promoted”.
Turning to “peptide VIII: 30 amino acid synthetic peptide located near the C-terminal part of the Fbg-L domain of Tenascin-C, Seq. Id. No. 8 (WYRNCHRVNLMGRYGDNNHSQGVNWFHWKG)”, the “effect on adhesion of SMCs to Tenascin-C (summary statement)” value in test [1] is given as “completely blocked”. Besides, the “effect on migration of SMCs on collagen substrate” value in test [6] was “did not interfere”. For the same molecule, in the test with newborn aortic SMCs, the “adhesion activity relative to the Fbg-L domain” value turned out to be 80% and the “level of adhesion of newborn SMCs to coated substrate” value is listed as “strongly promoting newborn cell adhesion”. Besides, the “inhibition of SMCs chemotaxis on Tenascin-C substrate” value in test [3] (0.1 μM Fbg-L or 1 μM peptide VIII in upper chamber, 4 hours) is recorded as about 70%.
In the case of fibronectin, the “adhesion of adult SMCs to coated substrate” value in the test on adult rat aortic SMCs is “avidly adhered”.

B1: vitronectin: vitronectin matrix protein (protein, UniProt P04004 20-478, looked up)
Vitronectin: DQESCKGRCTEGFNVDKKCQCDELCSYYQSCCTDYTAECKPQVTRGDVFTMPEDEYTVYDDGEEKNNATVHEQVGGPSLTSDLQAQSKGNPEQTPVLKPEEEAPAPEVGASKPEGIDSRPETLHPGRPQPPAEEELCSGKPFDAFTDLKNGSLFAFRGQYCYELDEKAVRPGYPKLIRDVWGIEGPIDAAFTRINCQGKTYLFKGSQYWRFEDGVLDPDYPRNISDGFDGIPDNVDAALALPAHSYSGRERVYFFKGKQYWEYQFQHQPSQEECEGSSLSAVFEHFAMMQRDSWEDIFELLFWGRTSAGTRQPQFISRDWHGVPGQVDAAMAGRIYISGMAPRPSLAKKQRFRHRNRKGYRSQRGHSRGRNQNSRRPSRATWLSLFSSEESNLGANNYDDYRMDWLVPATCEPIQSVFFFSGDKYYRVNLRTRRVDTVDPPYPRSIAQYWLGCPAPGHL
As for B1, the “adhesion of adult SMCs to coated substrate” value with adult rat aortic SMCs is reported as “avidly adhered”.
